Measured values taken from ChEMBL document CHEMBL1201862, “PubChem BioAssay data set” (2004).
Activity calls are given as the source filed them.

Key:
[1] = target: T1, Polyadenylate-binding protein 1 (Homo sapiens, UniProt P11940); assay: PABP1 MLLE–PAM2 binding inhibitor potency, dose response, biochemical, fluorescence polarization, FITC-PAM2 peptide (AID 602259); format: functional; details: read-out: IC50_Mean
[2] = target: T1, Polyadenylate-binding protein 1; assay: PABP1 MLLE–PAM2 interaction inhibitors, dose response, miRNA deadenylation inhibitor project, biochemical, fluorescence polarization, Cy5-PAM2 peptide, secondary (AID 602260); format: functional; details: read-out: IC50_Mean
[3] = target: T2, Heat shock factor protein 1 (Mus musculus, UniProt P38532); assay: HSF1 potentiators in luciferase reporter cells, confirmation, cell-based, NIH3T3, luminescence, dose retest (AID 435004); format: functional;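 note: stress induced by proteasome inhibitor MG132 added 30 min after compound; luciferase reporter driven by HSF1 response element in NIH3T3 cells; actives raise luminescence as potentiators of the MG132 stress response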
T2 sequence (P38532 whole entry): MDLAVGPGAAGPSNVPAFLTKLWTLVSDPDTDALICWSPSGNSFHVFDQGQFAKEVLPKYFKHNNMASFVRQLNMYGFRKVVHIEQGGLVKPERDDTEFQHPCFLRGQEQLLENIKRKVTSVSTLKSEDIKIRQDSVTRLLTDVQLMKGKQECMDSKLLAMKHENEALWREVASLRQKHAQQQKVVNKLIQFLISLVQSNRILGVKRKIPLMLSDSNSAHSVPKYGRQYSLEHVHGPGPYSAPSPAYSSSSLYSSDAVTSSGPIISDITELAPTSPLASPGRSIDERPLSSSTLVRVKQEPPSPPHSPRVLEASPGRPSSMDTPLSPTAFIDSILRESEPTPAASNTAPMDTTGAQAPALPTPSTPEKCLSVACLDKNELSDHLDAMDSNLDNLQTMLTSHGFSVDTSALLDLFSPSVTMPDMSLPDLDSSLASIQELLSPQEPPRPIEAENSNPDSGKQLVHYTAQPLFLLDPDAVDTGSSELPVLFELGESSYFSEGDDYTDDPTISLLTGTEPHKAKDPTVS

[4] = target: T3, Replicative DNA helicase DnaB (Mycobacterium tuberculosis, UniProt P9WMR3); assay: DnaB intein splicing inhibitors, dose response, biochemical, cell-free fluorescence (AID 449749); format: functional
T3 sequence (P9WMR3 whole entry): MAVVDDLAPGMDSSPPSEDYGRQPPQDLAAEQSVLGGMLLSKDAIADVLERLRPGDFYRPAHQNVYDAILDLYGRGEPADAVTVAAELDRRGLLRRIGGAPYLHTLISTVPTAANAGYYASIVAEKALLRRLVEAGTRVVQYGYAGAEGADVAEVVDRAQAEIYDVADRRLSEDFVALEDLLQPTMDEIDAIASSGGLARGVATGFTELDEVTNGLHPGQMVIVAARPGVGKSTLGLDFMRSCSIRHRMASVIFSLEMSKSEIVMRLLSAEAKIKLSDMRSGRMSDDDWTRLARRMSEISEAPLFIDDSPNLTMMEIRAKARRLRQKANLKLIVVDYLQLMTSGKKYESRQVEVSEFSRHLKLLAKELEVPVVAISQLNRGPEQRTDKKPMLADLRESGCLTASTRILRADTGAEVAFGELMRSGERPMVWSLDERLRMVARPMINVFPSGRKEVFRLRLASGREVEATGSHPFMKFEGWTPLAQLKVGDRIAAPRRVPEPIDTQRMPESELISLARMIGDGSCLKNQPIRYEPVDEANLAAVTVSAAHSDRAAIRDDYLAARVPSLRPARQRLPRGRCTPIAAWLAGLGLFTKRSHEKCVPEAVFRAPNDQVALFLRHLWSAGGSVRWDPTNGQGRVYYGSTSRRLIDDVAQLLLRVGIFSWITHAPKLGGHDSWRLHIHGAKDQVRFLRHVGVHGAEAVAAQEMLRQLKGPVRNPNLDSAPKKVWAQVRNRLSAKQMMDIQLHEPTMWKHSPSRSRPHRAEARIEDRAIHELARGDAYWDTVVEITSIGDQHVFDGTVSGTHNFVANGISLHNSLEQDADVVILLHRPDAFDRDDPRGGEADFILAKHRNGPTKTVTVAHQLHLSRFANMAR

[5] = target: T4, Protein RecA (Mycobacterium tuberculosis, UniProt P9WHJ3); assay: Fluorescence Cell-Free Homogeneous Dose Retest to Identify Inhibitors of RecA-Intein Splicing Activity. [Related pubchem assays (depositor defined):AID2097, AID2223, AID489010, AID492950]; format: functional
T4 sequence (P9WHJ3 whole entry): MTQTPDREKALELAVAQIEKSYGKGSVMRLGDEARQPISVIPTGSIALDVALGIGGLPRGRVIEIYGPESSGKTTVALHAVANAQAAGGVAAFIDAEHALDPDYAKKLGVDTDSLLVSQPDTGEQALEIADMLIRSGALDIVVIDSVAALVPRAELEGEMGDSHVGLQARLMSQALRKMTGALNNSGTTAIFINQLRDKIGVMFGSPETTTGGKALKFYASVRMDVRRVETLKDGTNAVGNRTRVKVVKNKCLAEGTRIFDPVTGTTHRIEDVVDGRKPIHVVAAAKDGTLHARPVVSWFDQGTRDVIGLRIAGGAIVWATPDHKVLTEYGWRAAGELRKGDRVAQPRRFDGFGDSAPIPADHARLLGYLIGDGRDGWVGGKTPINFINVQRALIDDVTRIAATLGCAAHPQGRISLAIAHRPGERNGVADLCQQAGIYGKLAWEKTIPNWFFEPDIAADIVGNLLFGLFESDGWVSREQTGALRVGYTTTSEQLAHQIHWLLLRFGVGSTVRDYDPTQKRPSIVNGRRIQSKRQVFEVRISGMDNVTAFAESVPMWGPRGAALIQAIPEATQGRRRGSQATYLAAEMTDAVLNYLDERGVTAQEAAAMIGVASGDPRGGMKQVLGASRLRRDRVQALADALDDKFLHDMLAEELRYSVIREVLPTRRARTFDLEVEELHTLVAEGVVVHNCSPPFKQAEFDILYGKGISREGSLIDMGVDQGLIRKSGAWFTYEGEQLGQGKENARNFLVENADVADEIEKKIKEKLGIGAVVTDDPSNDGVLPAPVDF

[6] = HEp-2 cell cytotoxicity, dose response, cytotoxicity control for RSV inhibitor project, HTS (AID 2410); format: functional; details: human respiratory syncytial virus
[7] = target: T5, Corticotropin-releasing factor receptor 2/Corticotropin-releasing factor-binding protein (Homo sapiens, UniProt P24387+Q13324); assay: activators of CRF receptor 2 with binding protein – uHTS hits, confirmation (AID 602473); format: functional; details: read-out: EC50_Mean
T5 sequence (Q13324 whole entry): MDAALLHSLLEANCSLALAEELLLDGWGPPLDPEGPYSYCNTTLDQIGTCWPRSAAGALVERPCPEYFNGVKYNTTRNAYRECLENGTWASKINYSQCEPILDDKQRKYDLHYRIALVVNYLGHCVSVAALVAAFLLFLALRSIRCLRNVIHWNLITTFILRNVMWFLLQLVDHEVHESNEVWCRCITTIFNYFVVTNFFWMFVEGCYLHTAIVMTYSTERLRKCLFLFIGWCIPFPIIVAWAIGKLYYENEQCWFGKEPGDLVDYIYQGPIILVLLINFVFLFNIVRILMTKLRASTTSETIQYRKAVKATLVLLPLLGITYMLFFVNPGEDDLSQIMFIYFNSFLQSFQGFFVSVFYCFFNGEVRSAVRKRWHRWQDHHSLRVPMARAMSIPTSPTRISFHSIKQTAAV
T5 sequence (P24387 whole entry): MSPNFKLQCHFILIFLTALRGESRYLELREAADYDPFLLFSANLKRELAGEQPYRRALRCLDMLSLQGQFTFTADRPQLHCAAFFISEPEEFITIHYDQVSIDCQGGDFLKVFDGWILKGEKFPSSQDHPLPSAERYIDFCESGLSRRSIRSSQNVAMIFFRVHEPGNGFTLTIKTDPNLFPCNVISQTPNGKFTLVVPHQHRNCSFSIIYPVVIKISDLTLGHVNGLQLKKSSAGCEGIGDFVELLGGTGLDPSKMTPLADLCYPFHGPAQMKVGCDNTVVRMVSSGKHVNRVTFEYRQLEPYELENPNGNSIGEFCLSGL

[8] = target: T5, Corticotropin-releasing factor receptor 2/Corticotropin-releasing factor-binding protein; assay: Dose Response confirmation of uHTS hits for small molecule antagonists of the CRF-binding protein and CRF-R2 receptor complex.; format: functional; details: read-out: IC50_Mean
[9] = inhibitors of intracellular T. cruzi replication, confirmation, NIH3T3 host cells, beta-gal luminescence (AID 2044); format: functional, cell-based;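 note: intracellular parasites grown in NIH/3T3 mouse fibroblasts as host cells; luminescent beta-galactosidase reporter signal from transgenic T. cruzi replicating inside host cells; inhibitors lower the luminescence signal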
[10] = cytotoxicity toward NIH3T3 fibroblasts, dose response, counter-screen, cell-based, ATP luminescence, mouse fibroblasts (AID 2010); format: functional;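 note: cells exposed to compound for about 90 hours before reading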
[11] = system: INS1; assay: beta cell apoptosis inhibitors, cytokine rescue, dose response, luminescence, retest (AID 449756); format: functional, cell-based; details: Rattus norvegicus;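 note: cell death triggered by IL-1 beta plus TNF-alpha plus IFN-gamma mixture; protective hits raise ATP signal compared with cytokine alone wells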
[12] = Luminescence Cell-Based Dose Retest to Confirm Inhibitors of Cancer Stem Cells. [Related pubchem assays (depositor defined):AID2717, AID2721]; format: functional; details: Homo sapiens

T1 sequence (P11940 whole entry): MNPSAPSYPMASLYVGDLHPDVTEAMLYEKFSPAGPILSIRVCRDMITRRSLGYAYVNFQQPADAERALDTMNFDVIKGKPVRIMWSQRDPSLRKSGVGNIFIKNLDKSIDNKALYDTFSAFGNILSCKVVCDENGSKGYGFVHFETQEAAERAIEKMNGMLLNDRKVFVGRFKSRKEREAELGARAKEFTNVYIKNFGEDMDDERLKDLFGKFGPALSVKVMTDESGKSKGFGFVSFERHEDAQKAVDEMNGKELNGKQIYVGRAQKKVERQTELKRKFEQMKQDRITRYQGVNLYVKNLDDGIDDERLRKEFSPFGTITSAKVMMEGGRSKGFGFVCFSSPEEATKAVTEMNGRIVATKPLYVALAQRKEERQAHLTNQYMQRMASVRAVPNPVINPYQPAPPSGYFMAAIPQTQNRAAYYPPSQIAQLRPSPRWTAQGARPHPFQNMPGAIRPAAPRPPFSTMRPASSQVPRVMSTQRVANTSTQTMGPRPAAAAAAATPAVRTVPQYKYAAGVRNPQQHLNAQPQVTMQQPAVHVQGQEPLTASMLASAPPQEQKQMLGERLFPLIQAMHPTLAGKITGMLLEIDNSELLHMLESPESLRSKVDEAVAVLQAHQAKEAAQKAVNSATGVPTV

Cn1ccnc1P(=S)(c1nccn1C)N1CCOCC1
IC50 [1]: > 66 µM (inactive) | IC50 [2]: > 66 µM (inactive)

C=CCn1c(SCC(=O)Nc2cc(NC(C)=O)ccc2OC)nnc1-c1cccnc1
EC50 [3]: > 260 µM (inactive)

COC(=O)COc1ccc(C(c2c(C)n[nH]c2O)c2c(C)n[nH]c2O)cc1
AC50 [4]: 0.347 µM (active) | EC50 [5]: 0.377 µM (active)

CN(c1cccc(NC(=O)CN(c2cccc(Cl)c2)S(=O)(=O)c2ccc(Cl)cc2)c1)S(C)(=O)=O
EC50 [3]: > 260 µM (inactive)

Cc1cc[n+](-c2[n-]c(=O)sc2C=NNC(=O)c2ccccc2)cc1
IC50 [1]: > 66 µM (inactive) | IC50 [2]: > 66 µM (inactive)

Cc1nonc1C1CCCN1Cc1c[nH]nc1-c1ccc(-c2ccccc2)cc1 (stereo unspecified)
CC50 [6]: 21.4 µM (active) | EC50 [3]: 35.2 µM (active)

COc1cccc(C(=O)N2CCCC(CCC(=O)NCc3ccc(F)c(F)c3)C2)c1 (stereo unspecified)
EC50 [7]: > 53 µM (inactive) | IC50 [8]: > 47.1 µM (inactive)

Cc1cc2cc(CN3C(=O)c4ccccc4C3=O)ccc2n1C
IC50 [1]: 55.2 µM (inactive) | EC50 [9]: < 0.1 µM (active) | EC50 [10]: > 60 µM (not active) | IC50 [2]: > 66 µM (inactive) | AC50 [11]: 13.3 µM (active)

CC(C)c1ccc(/C=C/C(=O)n2nnc3ccccc32)cc1
CC50 [6]: 25.1 µM (active) | EC50 [3]: 14.2 µM (active)

O=S(=O)(NC1c2cccc3cccc(c23)C1N1CCNCC1)c1ccc(Cl)cc1 (stereo unspecified)
EC50 [3]: > 260 µM (inactive)

CCc1ccccc1N1C(=O)C2CC(C)=C(C)CC2C1=O (stereo unspecified)
EC50 [7]: > 53 µM (inactive) | IC50 [8]: > 47.1 µM (inactive)

COc1cc(OC)cc(C(=O)NCC(=O)OCc2cc(=O)oc3cc(OC)ccc23)c1
EC50 [7]: > 53 µM (inactive) | IC50 [8]: > 47.1 µM (inactive)

O=C(CSc1nnc(C2COc3ccccc3O2)o1)NC1CCCCC1 (stereo unspecified)
EC50 [7]: > 53 µM (inactive) | IC50 [8]: > 47.1 µM (inactive)

CCOC(=O)Cn1nnnc1C(C(C)C)N(Cc1cc2c(C)cc(C)cc2[nH]c1=O)C1CCCC1 (stereo unspecified)
EC50 [3]: 36.9 µM (active)

Cc1ccc(O)c(CNc2nccs2)c1
EC50 [3]: 20.5 µM (active)

S=C(NCc1ccccc1)Nc1ccc(Cl)cc1
EC50 [7]: > 53 µM (inactive) | IC50 [8]: > 47.1 µM (inactive)

Cc1n[nH]c2c1C1(CCC3(CC1)OCCO3)C(C#N)=C(N)O2
AC50 [4]: > 380 µM (inactive) | EC50 [5]: > 380 µM (inactive)

COc1ccc(C(C(=O)NCC2CCCO2)N(C(=O)Cn2nnc3ccccc32)c2ccc(NC(C)=O)cc2)cc1OC (stereo unspecified)
EC50 [3]: > 260 µM (inactive)

CSc1ccc(C(c2c(C)n[nH]c2O)c2c(C)n[nH]c2O)cc1
AC50 [4]: 0.432 µM (active) | EC50 [5]: 0.241 µM (active)

CC1(C)C[C@@H]2C[C@@](C)(CN2C(=O)c2cc(COc3cccc(C(F)(F)F)c3)on2)C1
AC50 [12]: 2.23 µM (active) | AC50 [11]: 11.6 µM (active)

CCOc1cccc(=O)c2c(C)oc(C)c12
IC50 [1]: 41.6 µM (inactive) | IC50 [2]: 37.3 µM (inactive)

Cc1ccc2c(c1)N(C(=O)CSc1nncn1C)C(C)(C)c1ssc(=S)c1-2
AC50 [4]: 8.82 µM (active) | EC50 [5]: 10.1 µM (active)

CCC(C)(C)n1nnnc1CN(Cc1ccco1)Cc1cc2cc3c(cc2nc1O)OCO3
IC50 [1]: > 66 µM (inactive) | IC50 [2]: > 66 µM (inactive)

CSc1ccccc1N=C(S)Nc1ccc(S(N)(=O)=O)cc1
IC50 [1]: > 66 µM (inactive) | IC50 [2]: > 66 µM (inactive)

COc1ccc(CNC(=O)CCC(=O)N2CC(C)Oc3ccccc32)cc1 (stereo unspecified)
EC50 [3]: > 260 µM (inactive)

CCc1nc(N2CCN(S(=O)(=O)c3ccc(Br)cc3)CC2)c2c(C)c(C)sc2n1
EC50 [3]: > 260 µM (inactive)

CN(CCO)S(=O)(=O)c1ccc2c(c1)C(=NNC(N)=O)c1cc(S(=O)(=O)N(C)CCO)ccc1-2
EC50 [7]: > 53 µM (inactive) | IC50 [8]: > 47.1 µM (inactive)

O=[N+]([O-])c1cc(/C=N/c2cccc3c(O)cccc23)ccc1Cl
AC50 [4]: 46.8 µM (active) | EC50 [5]: 8.76 µM (active)
